Drawing on US20250042916A1 (ACONCAGUA BIO, INC., priority 2023, published 2025), this text covers EC50 for 21 molecules.

Bounds are passed on as bounds.

human calcitonin receptor (CTR) and RAMP3 (AMY3) in COS-7 cells, sequence (O60896 24-148, one chain of several): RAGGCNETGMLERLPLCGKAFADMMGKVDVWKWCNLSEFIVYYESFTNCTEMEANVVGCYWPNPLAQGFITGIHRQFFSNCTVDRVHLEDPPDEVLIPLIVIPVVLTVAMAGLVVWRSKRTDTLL

The target of one experiment is T1, human calcitonin receptor (CTR) in COS-7 cells (Homo sapiens, UniProt P30988).
T1 construct: expressed in transfected cells; host or cells: COS-7 (COS7-human CTR Clone #2)
T1 sequence (P30988 25-474): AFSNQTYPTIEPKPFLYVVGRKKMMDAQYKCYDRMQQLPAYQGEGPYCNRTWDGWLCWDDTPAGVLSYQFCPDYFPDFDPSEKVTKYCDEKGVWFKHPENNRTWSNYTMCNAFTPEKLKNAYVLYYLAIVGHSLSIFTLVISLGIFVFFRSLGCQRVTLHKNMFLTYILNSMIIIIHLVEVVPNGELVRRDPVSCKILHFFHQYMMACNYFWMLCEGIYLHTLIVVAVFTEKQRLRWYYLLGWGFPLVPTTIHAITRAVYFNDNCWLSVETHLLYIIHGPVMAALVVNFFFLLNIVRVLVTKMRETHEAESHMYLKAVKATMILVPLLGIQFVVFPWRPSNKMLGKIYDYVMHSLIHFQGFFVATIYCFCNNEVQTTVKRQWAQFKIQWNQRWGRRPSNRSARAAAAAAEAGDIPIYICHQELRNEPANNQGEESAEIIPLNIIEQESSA
In words: Calcitonin Receptor (CTR) cAMP Assay. Type of experiment: cell-based. The settings on record: COS7-human CTR Clone #2 cells; read-out: Calcitonin Receptor cAMP Stimulation Activity: EC50. The text has this: Calcitonin Receptor (CTR) cAMP Assay
The calcitonin receptor (CTR) belongs to the subfamily of GPCRs known as the secretin or ‘B’ family of GPCRs. Like other class B1 GPCRs, the CT receptor family is canonically coupled to Gs-mediated cAMP production, and measurement of cAMP accumulation has been the primary assay used to determine peptide selectivity and potency.
To optimize functional activity directed toward Gas coupling, COS-7 cells were stably transfected with human calcitonin receptor (CTR) to create COS7-human CTR Clone #2 stable cell line. 100× concentration of compound working solutions were prepared with 4-fold serial dilution in 384-well Echo LDV plate (Labcyte, Cat #LP-0200-BC). 200 nL/well 100× concentration of compound working solutions were moved to 384-well white microplate (Perkin Elmer, Cat #6007680) using Labcyte ECHO550. 1×10^5 cells/mL COS7-human CTR Clone #2 cell suspensions prepared with assay buffer [HBSS containing 20 mM HEPES (Gibco, Cat #15630-080), 0.5 mM IBMX (Sigma, Cat #15879) and 0.1% Casein (Sigma, Cat #C4765)], 20 μL cell suspensions were added to each well of previous generated assay plate which already contains 200 nL compound at 100× concentration using ThermoFisher Multidrop Combi (2000 cells/well). Seal the plate and incubate at 37° C. with 5% CO2 for 30 min.
After incubation, the cAMP assay signal was generated using cAMP dynamic 2 kit (Revvity, Cat #62AM4PEC). 10 μL cAMP-d2 working solution was added to each well, followed by […] Anti-cAMP antibody-cryptate working solution which was added to each well using CERTUS FLEX LIQUID DISPENSER. The samples were then incubated at room temperature for 1 hour protected from light. the fluorescence was read at 665 and 615 nm with Reader PerkinElmer EnVision 2105.
Consider `Cc1nnc(-c2c(CCc3ccc(F)cc3)nc(CC(C)C)c(C(N)=O)c2-c2ccc3c(ccn3CCc3ccc(F)c(F)c3)c2)o1` [Compound 144, 4-(1-(3,4-difluorophenethyl)-1H-indol-5-yl)-6-(4-fluorophenethyl)-2-isobutyl-5-(5-methyl-1,3,4-oxadiazol-2-yl)nicotinamide], for which the EC50 is 6.9 nM.
On the same count and under the same terms, the value for `COC1CCCN(c2nccc3cc(-c4c(C(N)=O)c(CC(C)C)nc(CCc5ccc(F)cc5)c4-c4nnc(C)o4)sc23)C1` (centres unmarked) [Compound 135, 6-(4-fluorophenethyl)-2-isobutyl-4-(7-(3-methoxypiperidin-1-yl)thieno[2,3-c]pyridin-2-yl)-5-(5-methyl-1,3,4-oxadiazol-2-yl)nicotinamide] was 280 nM.

The target of the next experiment is human calcitonin receptor (CTR) and RAMP3 (AMY3) in COS-7 cells (Homo sapiens, UniProt O60896+P30988). In words: Amylin Receptor cAMP Assay I. In kind it is cell-based. The settings on record: values marked *: Amylin Receptor cAMP Assay I; COS-7/AMY3 cells; read-out: Amylin Receptor cAMP Stimulation Activity: EC50. In a few lines:
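COS-7 cells stably co-expressing human CTR and RAMP3 (AMY3) were stimulated with serially diluted compounds (4-fold) in DPBS with 0.5 mM IBMX and 0.1% BSA for 30 min at 37 °C, 1000 cells/well. cAMP accumulation was measured by HTRF (cAMP-d2/anti-cAMP cryptate, 1 h RT) read at 665/615 nm.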
Turning to `Cc1nnc(-c2c(CCc3ccc(F)cc3)nc(CC(C)C)c(C(N)=O)c2-c2ccc3c(ccn3CCc3ccc(F)c(F)c3)c2)o1` [Compound 144, 4-(1-(3,4-difluorophenethyl)-1H-indol-5-yl)-6-(4-fluorophenethyl)-2-isobutyl-5-(5-methyl-1,3,4-oxadiazol-2-yl)nicotinamide], the EC50 was determined as 51.4 nM.
Still for that read-out and setting: the value for `COC1CCCN(c2nccc3cc(-c4c(C(N)=O)c(CC(C)C)nc(CCc5ccc(F)cc5)c4-c4nnc(C)o4)sc23)C1` (centres unmarked) [Compound 135, 6-(4-fluorophenethyl)-2-isobutyl-4-(7-(3-methoxypiperidin-1-yl)thieno[2,3-c]pyridin-2-yl)-5-(5-methyl-1,3,4-oxadiazol-2-yl)nicotinamide] was over 1000 nM.
As to `Cc1nnc(-c2c(CC(F)c3ccc(F)cc3)nc(CC(C)C)c(C(N)=O)c2-c2ccc(C(=O)N[C@@H]3CCc4ccccc43)s2)o1` (stereo partly drawn) [Compound 187, 4-(5-(((R)-2,3-dihydro-1H-inden-1-yl)carbamoyl)thiophen-2-yl)-6-(2-fluoro-2-(4-fluorophenyl)ethyl)-2-isobutyl-5-(5-methyl-1,3,4-oxadiazol-2-yl)nicotinamide], the EC50 was found to be 99.3 nM.
In the case of `Cc1nnc(-c2c(CCc3ccc(F)cc3)nc(CC(C)C)c(C(N)=O)c2-c2ccc(C(=O)N[C@@H]3CCc4cc(F)ccc43)s2)o1` [Compound 120, (R)-4-(5-((5-fluoro-2,3-dihydro-1H-inden-1-yl)carbamoyl)thiophen-2-yl)-6-(4-fluorophenethyl)-2-isobutyl-5-(5-methyl-1,3,4-oxadiazol-2-yl)nicotinamide], the EC50 turned out to be 1.7 nM.
The same measure, in the same setting: the value for `CC(C)Cc1nc(CCc2ccc(F)cc2)c(-c2cnn(C)c2)c(-c2ccc(C(=O)NCc3ccc(F)c(F)c3)s2)c1C(N)=O` [Compound 159] was 91 nM; that for `Cc1cc(-c2c(CCc3ccc(F)cc3)nc(CC(C)C)c(C(N)=O)c2-c2ccc(C(=O)NCc3ccc(F)c(F)c3)s2)on1` [Compound 151, N-(3,4-difluorophenyl)methyl-5-{5-carbamoyl-2-[2-(p-fluorophenyl)ethyl]-6-isobutyl-3-(3-methyl-5-isoxazolyl)-4-pyridyl}-2-thenamide] was 134 nM.
For the molecule `CC(C)Cc1nc(CCc2ccc(F)cc2)c(-c2nc(C(F)(F)F)no2)c(-c2ccc(C(=O)NCc3ccc(F)c(F)c3)s2)c1C(N)=O` [Compound 105, N-(3,4-difluorophenyl)methyl-5-{5-carbamoyl-2-[2-(p-fluorophenyl)ethyl]-6-isobutyl-3-[3-(trifluoromethyl)-1,2,4-oxadiazol-5-yl]-4-pyridyl}-2-thenamide], the EC50 was determined as 591 nM.
On the same count and under the same terms, the value for `Cc1nnc(-c2c(CCC(=O)N3CCCC3)nc(CC(C)C)c(C(N)=O)c2-c2ccc(C(=O)NCc3ccc(F)c(F)c3)s2)o1` [Compound 182] was 23300 nM.
As to `COC(Cc1nc(CC(C)C)c(C(N)=O)c(-c2ccc(C(=O)NCc3ccc(F)c(F)c3)s2)c1-c1nnc(C)o1)c1ccc(F)cc1` (centres unmarked) [Compound 186, 4-(5-((3,4-difluorobenzyl)carbamoyl)thiophen-2-yl)-6-(2-(4-fluorophenyl)-2-methoxyethyl)-2-isobutyl-5-(5-methyl-1,3,4-oxadiazol-2-yl)nicotinamide], the EC50 stood at 123 nM.
Same read-out and setting: the value for `Cc1nnc(-c2c(CCc3ccc(F)cc3)nc(CC(C)C)c(C(N)=O)c2-c2ccc(C(=O)N[C@@H]3CCc4ccc(F)cc43)s2)o1` [Compound 121, (R)-4-(5-((6-fluoro-2,3-dihydro-1H-inden-1-yl)carbamoyl)thiophen-2-yl)-6-(4-fluorophenethyl)-2-isobutyl-5-(5-methyl-1,3,4-oxadiazol-2-yl)nicotinamide] was 1 nM; that for `Cc1nnc(-c2c(Cc3ccc(F)cc3)nc(CC(C)C)c(C(N)=O)c2-c2ccc(C(=O)NCc3ccc(F)c(F)c3)s2)o1` [Compound 110, 4-(5-((3,4-difluorobenzyl)carbamoyl)thiophen-2-yl)-6-(4-fluorobenzyl)-2-isobutyl-5-(5-methyl-1,3,4-oxadiazol-2-yl)nicotinamide] was 74.1 nM; that for `Cc1nnc(-c2c(CCc3ccc(F)cc3)nc(CC(C)C)c(C(N)=O)c2-c2cc3ccnc(NCc4ccccn4)c3s2)o1` [Compound 200, 6-(4-fluorophenethyl)-2-isobutyl-5-(5-methyl-1,3,4-oxadiazol-2-yl)-4-(7-((pyridin-2-ylmethyl)amino)thieno[2,3-c]pyridin-2-yl)nicotinamide] was 273 nM.
For the molecule `Cc1ccc(-c2c(CCc3ccc(F)cc3)nc(CC(C)C)c(C(N)=O)c2-c2ccc(C(=O)NCc3ccc(F)c(F)c3)s2)cn1` [Compound 171, 4-(5-((3,4-difluorobenzyl)carbamoyl)thiophen-2-yl)-2-(4-fluorophenethyl)-6-isobutyl-6′-methyl-[3, 3′-bipyridine]-5-carboxamide], the EC50 was 59.7 nM.
The same measure, in the same setting: in the case of `COCC1CN(c2nccc3cc(-c4c(C(N)=O)c(CC(C)C)nc(CCc5ccc(F)cc5)c4-c4nnc(C)o4)sc23)C1` [Compound 134, 6-(4-fluorophenethyl)-2-isobutyl-4-(7-(3-(methoxymethyl)azetidin-1-yl)thieno[2,3-c]pyridin-2-yl)-5-(5-methyl-1,3,4-oxadiazol-2-yl)nicotinamide] it was 1160 nM; in that of `Cc1nnc(-c2c(OCc3ccc(F)cc3)nc(CC(C)C)c(C(N)=O)c2-c2ccc(C(=O)NCc3ccc(F)c(F)c3)s2)o1` [Compound 146, 4-[5-[(3,4-difluorophenyl)methylcarbamoyl]-2-thienyl]-6-[(4-fluorophenyl)methoxy]-2-isobutyl-5-(5-methyl-1,3,4-oxadiazol-2-yl)pyridine-3-carboxamide], 973 nM.
In the case of `Cc1nnc(-c2c(COc3ccc(F)cc3)nc(CC(C)C)c(C(N)=O)c2-c2cc3ccnc(NCc4ccc(F)c(F)c4)c3s2)o1` [Compound 163], the concentration for a half-maximal effect (EC50) is 40 nM.
As to `Cc1nnc(-c2c(NCc3ccc(F)cc3)nc(CC(C)C)c(C(N)=O)c2-c2ccc(C(=O)NCc3ccc(F)c(F)c3)s2)o1` [Compound 158], the EC50 came out at 120 nM.
Same read-out and setting: in the case of `Cc1nnc(-c2c(CC3COc4ccccc4O3)nc(CC(C)C)c(C(N)=O)c2-c2ccc(C(=O)NCc3ccc(F)c(F)c3)s2)o1` (centres unmarked) [Compound 180, 4-(5-((3,4-difluorobenzyl)carbamoyl)thiophen-2-yl)-6-((2,3-dihydrobenzo[b][1,4]dioxin-2-yl)methyl)-2-isobutyl-5-(5-methyl-1,3,4-oxadiazol-2-yl)nicotinamide] it was 138 nM; in that of `Cc1nnc(-c2c(CCc3ccc(F)cc3)nc(CC(C)C)c(C(N)=O)c2-c2cc3ccnc(NCc4ccc(F)c(F)c4)c3o2)o1` [Compound 130, 4-(7-{[(3,4-difluorophenyl)methyl]amino}-1-oxa-6-aza-2-indenyl)-6-[2-(p-fluorophenyl)ethyl]-2-isobutyl-5-(5-methyl-1,3,4-oxadiazol-2-yl)nicotinamide], 49 nM.
Take `Cc1nnc(-c2c(CCc3ccc(F)cc3)nc(CC(C)C)c(C(N)=O)c2-c2ccc(C(=O)NCc3ccc(F)c(F)c3)o2)o1` [Compound 128, N-(3,4-difluorophenyl)methyl-5-{5-carbamoyl-2-[2-(p-fluorophenyl)ethyl]-6-isobutyl-3-(5-methyl-1,3,4-oxadiazol-2-yl)-4-pyridyl}-2-furamide]: the EC50 was determined as 162 nM.
The same measure, in the same setting: in the case of `Cc1nnc(-c2c(CCc3ccc(F)cc3)nc(CC(C)C)c(C(N)=O)c2-c2ccc3c(c2)CCC3NCc2ccc(F)c(F)c2)o1` (centres unmarked) [Compound 143, 4-(1-{[(3,4-difluorophenyl)methyl]amino}-5-indanyl)-6-[2-(p-fluorophenyl)ethyl]-2-isobutyl-5-(5-methyl-1,3,4-oxadiazol-2-yl)nicotinamide] it was 374 nM.
